Series [1] concerns mice inoculated with tumour cells (ISA). The series can be described thus: In vivo MRI contrast enhancement (En %). The note with it: 0.1 mmol/Kg. As to the method:
The increase in contrast (En %) generated by the administration of the complex according to the present invention Fe(DFX)2, obtained as per Example 1 (0.1 mmol/Kg), was measured and compared with the one induced by the Gd-DTPA complex (known by the trade name of Magnevist) at the same dose and under the same experimental conditions. The measurements were performed (in vivo), under a fixed magnetic field of 3T and 7T, in mice inoculated with tumour cells (ISA). The images were acquired when the size of the subcutaneous tumour had reached about 1-2 cm (i.e. about 15-20 days after inoculation).

A short description of series [2]: Fixed-field relaxometric measurements in human serum and in water. It is filed as physicochemical. The conditions noted are these: for r1p / r2p: 1 T, 37° C. As for the experimental part: Fixed-field relaxometric measurements were performed using the [Fe(DFX)2Meg3] complex obtained as per Example 1, comparing it with two prior art complexes, Gd-DTPA and Fe-DTPA.

Regarding `CNC[C@H](O)[C@@H](O)[C@H](O)[C@H](O)CO.CNC[C@H](O)[C@@H](O)[C@H](O)[C@H](O)CO.O=C([O-])CN(CCN(CC(=O)[O-])CC(=O)O)CCN(CC(=O)[O-])CC(=O)O.[Gd+3]` [Gd-DTPA, gadopentetic acid], in series [1], the “renal excretion (kidneys and bladder contrast) compared with Fe(DFX)2” value was “more rapid renal excretion”. Further, in series [2] (Human serum), the r1p was 4.1 (1 T, 37° C.) and the r2p is recorded as 4.8 (1 T, 37° C.). In addition, in series [2] (human serum, 37° C. and 1T), the “relaxivity in human serum” value was 3.4 mM⁻¹ s⁻¹. Also, in series [2] (water), the r1p is listed as 3.4 (1 T, 37° C.) and the r2p is 3.9 (1 T, 37° C.).
